# Laboratory results taken from publication PMC3870792 (Neuropsychopharmacology, 2013).
# Target: GABAA receptor α2 subunit (α2β3γ2 GABAAR) (Rattus norvegicus, UniProt P18508+P23576)
# Assay: [3H]Ro […]-4513 displacement on HEK293 membranes
# Type: binding
# Chain of GABAA receptor α2 subunit (α2β3γ2 GABAAR) (P23576 29-451): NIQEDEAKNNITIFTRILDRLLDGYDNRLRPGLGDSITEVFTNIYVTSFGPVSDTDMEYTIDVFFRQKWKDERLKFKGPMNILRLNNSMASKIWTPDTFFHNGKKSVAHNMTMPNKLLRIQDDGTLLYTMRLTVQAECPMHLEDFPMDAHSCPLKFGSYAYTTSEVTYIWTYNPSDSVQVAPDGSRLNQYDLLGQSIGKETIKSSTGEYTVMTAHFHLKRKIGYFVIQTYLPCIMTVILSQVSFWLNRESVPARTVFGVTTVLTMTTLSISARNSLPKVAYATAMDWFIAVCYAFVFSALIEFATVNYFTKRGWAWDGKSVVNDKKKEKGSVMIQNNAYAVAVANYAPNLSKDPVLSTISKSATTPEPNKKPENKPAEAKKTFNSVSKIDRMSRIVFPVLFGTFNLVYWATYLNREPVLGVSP
# Chain of GABAA receptor α2 subunit (α2β3γ2 GABAAR) (P18508 39-466): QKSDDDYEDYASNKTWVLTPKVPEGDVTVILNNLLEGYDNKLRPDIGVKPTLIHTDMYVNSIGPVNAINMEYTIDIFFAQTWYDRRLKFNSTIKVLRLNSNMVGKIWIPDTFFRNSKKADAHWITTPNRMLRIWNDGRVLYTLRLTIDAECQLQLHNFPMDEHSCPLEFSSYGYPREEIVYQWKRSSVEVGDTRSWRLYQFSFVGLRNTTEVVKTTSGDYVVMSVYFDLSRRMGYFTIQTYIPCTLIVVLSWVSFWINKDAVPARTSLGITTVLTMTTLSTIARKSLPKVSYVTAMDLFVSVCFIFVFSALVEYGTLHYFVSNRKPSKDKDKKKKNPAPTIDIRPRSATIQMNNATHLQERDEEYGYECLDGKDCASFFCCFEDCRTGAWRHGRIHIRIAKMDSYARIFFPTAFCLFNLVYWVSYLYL
# Chain of GABAA receptor α2 subunit (α2β3γ2 GABAAR) (P63079 26-473 partner): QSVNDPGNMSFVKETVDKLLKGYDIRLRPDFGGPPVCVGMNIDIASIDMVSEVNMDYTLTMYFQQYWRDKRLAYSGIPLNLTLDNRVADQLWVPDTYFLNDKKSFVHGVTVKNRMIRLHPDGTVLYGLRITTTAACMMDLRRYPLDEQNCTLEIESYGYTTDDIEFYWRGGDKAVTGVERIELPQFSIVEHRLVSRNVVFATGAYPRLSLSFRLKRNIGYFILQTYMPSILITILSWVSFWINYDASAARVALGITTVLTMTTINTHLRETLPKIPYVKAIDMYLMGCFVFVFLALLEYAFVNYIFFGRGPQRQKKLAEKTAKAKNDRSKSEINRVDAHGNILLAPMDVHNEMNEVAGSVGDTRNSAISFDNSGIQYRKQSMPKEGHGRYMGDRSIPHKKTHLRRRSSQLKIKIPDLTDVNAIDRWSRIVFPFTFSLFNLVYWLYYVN
smiles,measurement,value
"C#Cc1ccc2c(c1)C(c1ccccn1)=NCc1c(C(=O)OCC)ncn1-2 [compound 2 in Rivas et al, 2009, ethyl 8-ethynyl-6-(pyridin-2-yl)-4H-benzo[f]imidazo[1,5-a][1,4]diazepine-3-carboxylate]",Ki,0.221 ± 0.022 µM
